Data set [1] can be described thus: 1H-NMR of drugs and model linker compound with CMP-OMe before and after irradiation. Format: physicochemical. The note with it: for Oxidation under the irradiation condition: 1H-NMR. The text has this: The cleavage of aminoacrylate linkers after irradiation was supported by the increased coumarin fluorescence of 9 by irradiation (FIGS. 14-21). The unique peak of each compound was integrated against the peak of CMP-OMe (four protons of CMP-OMe at 9.7 ppm, FIG. 14), which was known to be inert to singlet oxygen oxidation. […] However, we observed 77% decrease of the proton peak of the aminoacrylate linker after the irradiation (FIG. 21). […] PD 9 had negligible coumarin emission compared to that of free coumarin at the equimolar concentration. In the presence of 10 μM of 9, MCF-7 cells were incubated for 24 h to activate dPS. Then, the samples were irradiated by visible light (540±10 nm, 8 mW/cm^2, 30 min). […] The released free coumarin was also detected and quantified by HPLC based on the standard curve of free coumarin. As such, almost 99% of 9 released coumarin while only 64% of dPS of 9 were activated when irradiated.

Data set [2] concerns MCF-7 cells. Briefly: Dark toxicity, MTT cell viability (Example 4). Particulars: MCF-7, 96 hr, no irradiation. The data set is classed as cell-based. The procedure: MCF-7 cells (5,000 cells/well) were seeded in 96 well plates. After the plates were incubated for 24 hr, the culture medium was aspirated and the cells were washed with cold PBS (100 μL) once. Then, prodrug in the 200 μL culture media was added to cells. The final concentrations ranging from 1 nM to 1 μM were used to perform concentration dependent cell viability and 25 nM prodrug was used to perform time dependent drug release study. After 96 hr incubation, the cell viability was determined by MTT assay detailed below. The experiments were performed in triplicate. IC50 values were calculated with GraphPad Prism 5.
Cell viability was assessed by MIT assay.^89 In brief, after thoroughly washing the cells 2× with PBS buffer, the cells were treated with 200 μL 0.5 mg/mL MIT (3-(4,5-dimethylthiazol-2-yl)-2,5-diphenyltetrazolium bromide, a yellow tetrazole). Subsequently, the cells were incubated at 37° C. under a humidified atmosphere of 5% CO2 for 4 h. After 4 h of incubation, the solution from each well was taken out, and washed with PBS one time and added 100 μL DMSO. The plates were shaken at room temperature for 10 min and read immediately at 570 nm on a microplate reader (Spectra max, Molecular devices). Cell viability (%) was expressed as a ratio of treated cells to control cells.

For data set [3], the target named is T1, tubulin (Sus scrofa, UniProt P02554).
T1 construct: purchased Cytoskeleton, Inc. BK011P
Briefly: Fluorescence-based tubulin polymerization assay. Format: biochemical. On the procedure: Paclitaxel and CA4 were used as positive control drugs (a polymerization enhancer and an inhibitor, respectively) in addition to the negative control group (FIG. 32).
The fluorescence-based tubulin polymerization was determined by using a kit supplied by Cytoskeleton, Inc. (cat #=BK011P). Its basic principle is that the fluorescence reporter increases as it is incorporated into microtubules during the course of polymerization. The assay was performed following the experimental procedure as described in version 2.1 of the tubulin polymerization assay kit manual. Briefly, the test drug (final concentration=3 μM) was added to a mixture of tubulin and GTP in a buffer solution, and the reaction mixture was incubated at 37° C. Fluorescence was monitored (excitation=360 nm and emission=450 nm) by using a fluorescence plate reader (SpectraMax Gemini EM, Molecular device). Paclitaxel and CA4 were included in the assay as positive controls in addition to the negative control (vehicle only).

Data set [4] relates to MCF-7 cells. Put plainly: Dark toxicity, MTT (Example 5). Particulars: for IC50: MCF-7, dark, 3 days, read-out: IC50D (dark toxicity). Format: cell-based. On the procedure: It seemed that the bulky groups, CMP-L and CMP-NCL, reduced the cytotoxic activity of CA4, presumably through the interference of its binding to tubulin as estimated by the modeling study.
(§1) MCF-7 cells were maintained in minimum essential medium (α-MEM) supplemented with 10% bovine growth serum, 2 mM L-glutamine, 50 units/mL penicillin G, 50 μg/mL streptomycin and 1.0 μg/mL fungizone. MCF-7 cells (5,000 cells/well) were seeded on 96-well plates in the medium and then incubated for 24 h at 37° C. in 5% CO2. Stock solutions (2 mM) were prepared in DMSO. The stocks were further diluted with medium to get necessary final concentrations. The diluted solution (10 μL) was then added to each well (190 μL). The plates were incubated for 24 h and then removed from the incubator. For the phototoxicity study: The plate without a cover was placed on an orbital shaker (Lab-line, Barnstead International) and irradiated by using a diode laser (690 nm, 5.6 mW/cm^2) for 30 min. To ensure uniformity of the light during the irradiation, each plate was shaken gently on an orbital shaker. For the dark toxicity study: Plates were kept in the dark for 30 min, and then returned to the incubator. Cell viability was determined after 3 days by using the MTT assay. Briefly, a 10 μL solution of MTT (10 mg in 1 mL PBS buffer) was added to each well and the plate was incubated for 4 h. Then, the MTT solution was removed and the cells were dissolved in 200 μL of DMSO and the absorbance within each well was measured at 570 nm with background subtraction at 650 nm. The cell viability was then quantified by measuring the absorbance of the treated wells compared to that of the untreated wells (controls) and expressed as a percentage.

Data set [5] deals with colon 26 cells. Briefly: Antitumor efficacy study, s.c. colon 26 tumors. The data set is classed as in vivo, BALB/c mice. The note with it: similar dose, pilot studies. The procedure: The antitumor effects of the prodrugs after irradiation were evaluated by using a mouse tumor model: BALB/c mice having s.c. tumors produced by injection of colon 26 cells. After 1.5 h-post i.p. injection of prodrugs, each tumor was irradiated by 690 nm diode laser (360 J/cm^2=200 mW/cm^2 for 30 min) on days 0, 1 and 2. The treatment conditions were determined from pilot studies although those conditions might not have been the optimal conditions.
Four- to six-week-old BALB/c mice (18-20 g, Charles River Laboratories, Inc.) were used for the murine tumor model. The mice were implanted s.c. with 2×10^6 colon 26 cells in PBS (100 μL) on the lower back-neck region. Tumor growth was monitored with digital caliper. Two dimensions l and w (l: the longest axis of tumor and w: the axis perpendicular to l) were used to calculate tumor volume (lw^2/2). Mice with a tumor of the diameter 3-5 mm were used for the experiments.
Samples were filtered using 0.2 μm sterile syringe filter. To each mouse, 200 μL of sample was injected via i.p. once a day on day 0, 1, and 2. Then, 1 h 30 min later mice were anesthetized with ketamine 80 mgkg^−1 and xylazine 6 mgkg^−1, i.p. injection. Tumors were irradiated with a 690 nm diode laser at 200 mW/cm^2 for 30 min (360 J/cm^2). Tumor size was measured with the digital caliper every day after the treatment.

The conditions of data set [6]: literature (ref 79); cited from earlier work.
Data set [7] in a line: Photooxygenation kinetics (DPBF fluorescence, Rose Bengal, Stern-Volmer analysis). The data set is classed as physicochemical. The note with it: acetone, 15° C., 540±10 nm. On the procedure: Fluorescence emission was used to monitor the disappearance of 1,3-diphenylisobenzofuran (DPBF) which was recorded on a LS 50 B luminescence spectrometer (Perkin Elmer, USA). DPBF (5×10^−2 M) and Rose Bengal (0.5×10^−5 M) stock solution in dry acetone was prepared. In addition, varying known concentrations of 2,3-dimethylbutene, (E)-N-phenyl-3-(piperidin-1-yl)acrylamide (a model compound with aminoacrylate linker) and Combretastatin A-4 (CA-4) were freshly prepared. Using a tungsten-halogen light source filtered at 540±10 nm (Lumacare), the appropriate solution of DPBF-Rose Bengal with or without a substrate placed in a fluorescence cuvette and held in a thermostated cell at 15° C. with stirring was irradiated with 0.1 mW/cm^2 light intensity at 30 sec interval. The fluorescence intensity of DPBF at 455 nm as a function of time provided the rate of photooxygenation of DPBF. […] As such, the reaction kinetics could be determined in light of the following analysis.
Using the above kinetic analysis and equation (5), the second order rate constant (k) of the aminoacrylate linker was experimentally determined to be 2.5×10^7 M^−1s^−1, wherein k=kr+kq
Then, β value was calculated from the plot of S0/Sx vs. [A]. […] From the kd value of the solvent (kd of acetone=38,400 s^−1), β value of A was calculated. […]

For data set [8], the system named is MCF-7 cells. Put plainly: Phototoxicity, MTT (Example 5). Format: cell-based. On the procedure:
On the other hand, only a photodynamic effect could damage cells by [CMP-NCL-CA4+hv].
as §1, with “For the dark toxicity study: Plates were kept in the dark for 30 min, and then returned to the incubator.” left out, “Briefly, a 10 μL solution of MTT (10 mg in 1 mL PBS buffer) was added to each well and the plate was incubated for 4 h.” left out

Structures are written as SMILES.

T1 sequence (P02554 whole entry): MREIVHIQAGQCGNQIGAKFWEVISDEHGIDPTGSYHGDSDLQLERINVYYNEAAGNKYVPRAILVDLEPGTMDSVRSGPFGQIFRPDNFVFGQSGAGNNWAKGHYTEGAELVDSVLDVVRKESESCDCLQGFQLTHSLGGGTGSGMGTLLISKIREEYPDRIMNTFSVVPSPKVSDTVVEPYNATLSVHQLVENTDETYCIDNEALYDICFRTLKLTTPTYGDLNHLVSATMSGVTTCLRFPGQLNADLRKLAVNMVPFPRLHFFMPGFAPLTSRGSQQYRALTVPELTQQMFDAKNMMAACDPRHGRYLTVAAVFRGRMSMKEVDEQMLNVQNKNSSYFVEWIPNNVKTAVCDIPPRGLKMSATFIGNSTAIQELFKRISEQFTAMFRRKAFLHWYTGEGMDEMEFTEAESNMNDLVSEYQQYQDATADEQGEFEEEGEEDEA
T1 sequence (P02550 whole entry partner): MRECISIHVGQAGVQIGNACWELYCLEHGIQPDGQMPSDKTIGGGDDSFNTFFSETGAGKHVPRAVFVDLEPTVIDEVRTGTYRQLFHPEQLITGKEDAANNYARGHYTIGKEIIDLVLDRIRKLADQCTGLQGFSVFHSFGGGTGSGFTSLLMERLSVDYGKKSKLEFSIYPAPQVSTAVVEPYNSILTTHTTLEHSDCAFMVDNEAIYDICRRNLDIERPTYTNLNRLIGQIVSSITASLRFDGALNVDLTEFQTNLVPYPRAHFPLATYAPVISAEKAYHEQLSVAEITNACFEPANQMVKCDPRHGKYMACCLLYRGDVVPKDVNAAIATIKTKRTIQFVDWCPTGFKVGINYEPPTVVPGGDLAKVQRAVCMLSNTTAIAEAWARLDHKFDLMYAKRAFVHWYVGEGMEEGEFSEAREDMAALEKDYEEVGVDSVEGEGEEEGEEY

One may read the inhibition as the change of the read-out against control, counted positive when it falls. In the case of `COc1ccc(/C=C\c2cc(OC)c(OC)c(OC)c2)cc1O` [CA-4, Combretastatin A-4], the “Oxidation under the irradiation condition” value in data set [1] is reported as “not oxidized at all”. The IC50 amounted to 8 nM in data set [2] (Homo sapiens, MCF7, light or radiation study) and 9 nM in data set [4] (Homo sapiens, MCF7, 72 h). Moreover, the “Pattern of kinetic trace of tubulin polymerization” value in data set [3] (3 μM) is listed as “inhibitor”. The inhibition at 3 µM in data set [3] (read-out: Inhibition of tubulin polymerization) was 100%. Besides, the “Significant tumor growth delay by CA4 itself” value in data set [5] was “not seen”.
Take `CCc1c2c(nc3ccc(O)cc13)-c1cc3c(c(=O)n1C2)COC(=O)[C@]3(O)CC` [SN-38]: in data set [1], the “Oxidation under the irradiation condition” value was “not oxidized at all”. Besides, the IC50 in data set [2] was 170 nM. Besides, in data set [6], the “Times more active than irinotecan” value is reported as “at least 1000 times”.
Consider `O=C(/C=C/N1CCCCC1)Nc1ccccc1` [Compound 9 (Example 3), (E)-N-Phenyl-3-(piperidin-1-yl)acrylamide], for which, in data set [1] (CDCl3, 1H-NMR), the “Decrease of the proton peak after irradiation” value is on record as 77%. Also, the “Second order rate constant (k = kr+kq) with singlet oxygen” value in data set [7] turned out to be 2.5e+07 M⁻¹ s⁻¹.
Consider `COc1ccc(/C=C\c2cc(OC)c(OC)c(OC)c2)cc1OCCCN1CCN(C(=O)COc2ccc(-c3c4nc(c(-c5ccccc5)c5ccc(s5)c(-c5ccccc5)c5nc(c(-c6ccccc6)c6ccc3s6)C=C5)C=C4)cc2)CC1` [CMP-NCL-CA4], for which, in data set [3] (3 μM, 1 h incubation at 37° C.), the “Inhibition of tubulin polymerization” value stood at 9%. Moreover, the IC50 in data set [4] is 1800 nM; in data set [8] (MCF-7, 690 nm, 5.6 mW/cm^2, 30 min, read-out: IC50 after irradiation (phototoxicity)), 1060 nM. The “Reduction of cytotoxicity relative to CA4” value in data set [4] (dark) worked out at 200 fold. Besides, the “Increase of cytotoxicity after irradiation” value in data set [8] (IC50 dark vs irradiated) is 1.7 fold.

The record behind these values is patent US9839690B2, “Singlet oxygen-labile linkers and methods of production and use thereof” (The Board of Regents of the University of Oklahoma, priority 2012, dated 2017).
